One data set concerns T47D. The data set can be described thus: MTT in vitro cytotoxicity assay. To be noted: Homo sapiens, Breast, 72 h, read-out: IC50 growth inhibition. The format is cell-based. Here is the method:
(§1) The inhibitory effect of Sepin-1 on cell growth was assayed using the 3-(4,5-dimethylthiazol-2yl)-2,5-diphenyl-tetrazolium bromide (MTT) colorimetric dye reduction method (Cancer Chemother. Pharmacol., 2006, 58, 13-23). One hundred thirty-five μl of exponentially growing cancer cells were plated at a density of 0.4-1.0×10^5 cells/well in a 96-well microtiter plate. After 16 h, Sepin-1 at specified concentrations was added to each well. After 72 h of continuous drug exposure, 15 μl of 5 mg/ml MTT was added to each well and the plates were incubated for 4 h at 37° C. Medium was replaced with 150 μl of DMSO to solubilize the formazan, and the optical density (OD) was measured at 550 nm using a microplate spectrophotometer (Anthos Analytical, Durham, N.C., USA). Cell viability was calculated by subtracting the background OD of media alone from the OD of test wells, then dividing by the OD of the control (untreated) wells. Replicates of 3 wells were used for each drug concentration. The in vitro cytotoxicity assay was repeated once and the IC50 reported was the average of two independent experiments.

The target in the next data set is T1, Separase (Homo sapiens, UniProt Q14674).
T1 construct: made in house; host or cells: 293T cells; released from IgG-Agarose by TEV protease
T1 sequence (Q14674 whole entry): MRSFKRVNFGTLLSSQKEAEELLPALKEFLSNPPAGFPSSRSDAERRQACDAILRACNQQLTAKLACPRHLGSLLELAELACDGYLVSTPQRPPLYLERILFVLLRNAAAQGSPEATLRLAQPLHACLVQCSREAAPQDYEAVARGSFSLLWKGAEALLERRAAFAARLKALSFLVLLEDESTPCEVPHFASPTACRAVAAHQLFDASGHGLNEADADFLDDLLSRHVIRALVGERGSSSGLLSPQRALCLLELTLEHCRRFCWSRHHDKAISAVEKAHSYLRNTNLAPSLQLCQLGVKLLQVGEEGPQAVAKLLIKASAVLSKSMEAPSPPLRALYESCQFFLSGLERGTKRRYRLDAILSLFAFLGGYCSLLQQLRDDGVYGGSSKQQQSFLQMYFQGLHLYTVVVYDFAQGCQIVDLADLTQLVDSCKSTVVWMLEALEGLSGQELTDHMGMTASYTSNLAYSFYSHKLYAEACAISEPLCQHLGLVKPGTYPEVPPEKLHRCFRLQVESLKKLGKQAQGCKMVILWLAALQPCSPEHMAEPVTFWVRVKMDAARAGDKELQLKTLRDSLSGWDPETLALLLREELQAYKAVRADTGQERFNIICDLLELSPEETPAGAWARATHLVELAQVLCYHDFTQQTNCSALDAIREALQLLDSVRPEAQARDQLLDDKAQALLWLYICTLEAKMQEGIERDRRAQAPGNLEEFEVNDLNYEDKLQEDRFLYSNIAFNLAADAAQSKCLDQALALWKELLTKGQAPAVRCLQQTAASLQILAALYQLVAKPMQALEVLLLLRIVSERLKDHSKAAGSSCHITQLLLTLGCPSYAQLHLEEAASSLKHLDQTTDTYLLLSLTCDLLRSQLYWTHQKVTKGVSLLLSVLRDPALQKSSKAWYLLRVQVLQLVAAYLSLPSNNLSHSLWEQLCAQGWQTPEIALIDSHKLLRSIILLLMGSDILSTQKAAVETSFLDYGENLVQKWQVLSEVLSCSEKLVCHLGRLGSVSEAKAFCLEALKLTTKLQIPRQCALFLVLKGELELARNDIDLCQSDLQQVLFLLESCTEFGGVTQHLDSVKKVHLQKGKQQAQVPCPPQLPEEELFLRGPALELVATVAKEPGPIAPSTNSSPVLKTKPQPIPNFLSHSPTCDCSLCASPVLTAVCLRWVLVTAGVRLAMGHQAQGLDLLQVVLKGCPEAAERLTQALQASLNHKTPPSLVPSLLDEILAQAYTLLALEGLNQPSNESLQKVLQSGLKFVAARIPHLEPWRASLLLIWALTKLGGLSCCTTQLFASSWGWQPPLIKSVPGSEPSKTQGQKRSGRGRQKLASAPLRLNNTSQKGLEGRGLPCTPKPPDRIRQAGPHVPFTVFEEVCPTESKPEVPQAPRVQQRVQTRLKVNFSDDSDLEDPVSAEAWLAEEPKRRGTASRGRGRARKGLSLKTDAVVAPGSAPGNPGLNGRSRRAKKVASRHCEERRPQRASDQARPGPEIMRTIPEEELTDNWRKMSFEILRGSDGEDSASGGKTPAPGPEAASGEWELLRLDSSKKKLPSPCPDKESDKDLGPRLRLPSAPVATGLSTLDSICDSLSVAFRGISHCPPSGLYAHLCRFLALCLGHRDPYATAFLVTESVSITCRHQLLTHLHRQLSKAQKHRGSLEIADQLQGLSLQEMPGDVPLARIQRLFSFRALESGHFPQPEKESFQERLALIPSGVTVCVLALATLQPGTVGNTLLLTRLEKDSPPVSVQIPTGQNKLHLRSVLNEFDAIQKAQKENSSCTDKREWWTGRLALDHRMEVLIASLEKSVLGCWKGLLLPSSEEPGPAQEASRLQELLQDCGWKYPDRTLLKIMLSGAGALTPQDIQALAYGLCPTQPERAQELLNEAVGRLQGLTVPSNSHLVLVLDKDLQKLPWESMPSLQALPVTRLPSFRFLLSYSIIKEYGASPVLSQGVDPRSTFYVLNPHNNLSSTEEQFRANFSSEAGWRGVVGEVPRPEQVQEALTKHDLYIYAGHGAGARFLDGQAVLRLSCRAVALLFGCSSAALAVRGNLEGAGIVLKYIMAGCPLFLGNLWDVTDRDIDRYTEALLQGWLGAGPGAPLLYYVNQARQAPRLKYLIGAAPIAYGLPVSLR
The data set can be described thus: Fluorogenic Separase activity assay using (Rad21)2-Rh110 as substrate. The format is biochemical. To be noted: for IC50: (Rad21)2-Rh110 substrate. Here is the method:
The substrate used in this Example is (Rad21)2-Rh110, which has two Rad21 peptide molecules (Asp-Arg-Glu-Ile-Nle-Arg) conjugated to one molecule of Rhodamine 110 (Rh110) (CPC Scientific, Sunnyvale Calif.). The assay was set up using 384-well low volume black polystyrene plates (Corning, N.Y.). Fifteen micro liter of activated Separase (˜5 ng) was mixed with 5 μl of test compound. The cleavage buffer (CB) used to dilute reagents was (30 mM Hepes-KOH pH7.7, 50 mM NaCl, 25 mM NaF, 25 mM KCl, 5 mM MgCl2, 1.5 mM ATP, and 1 mM EGTA). The mixture was incubated at room temperature for 1 h, and then 5 μl of 0.2 mM substrate (Rad21)2-Rh110 was added. The positive control contained Separase, substrate and CB without the test compound. The negative control contained substrate and CB only. After the reaction mixture was incubated at 37° C. for 3 h, the relative fluorescence intensity was measured (without stopping the enzymatic activity) at λex=390 nm/λem=450 nm for […] (AMC) released from Rad21-MCA or λex=490 nm/λem=528 nm for Rh110 released from (Rad21)2-Rh110 using a Synergy™ 4 Multi-Mode Microplate Reader (BioTek Instruments Inc., Winooski, Vt.).
Different amounts of Sepin-1 were mixed with activated Separase for 30 min before substrate (Rad21)2-Rh110 was added. After 3 h incubation at 37° C., the fluorescence intensity of Rh110 was determined. IC50 was calculated using either KaleidaGraph program (Synerge software, Reading, Pa.) or four parameter logistic equation (4-parameter dose-response curve fit): Inhibition of Activity (%)=min+(max−min)/{1+(log [M]/IC50)}^Hill Slop, where “min” and “max” represent minimal and maximal activity inhibition, respectively. Hill Slop is the slope of the curve at its midpoint. To identify the mode of Sepin-1 interacting with Separase, different amounts of both Sepin-1 and (Rad21)2-Rh110 were used in the Separase activity assay.

Data set [1] has as its system MC1 triple-negative breast tumor xenograft. As to the kind of experiment: Growth inhibition of patient-derived xenograft MC1. The following applies: 10 mg/kg intraperitoneal injection, three week treatment. The format is in vivo, SCID-beige mice. The source says: (§2) Patient-derived xenograft (PDX) lines MC1 (ER− PR− HER2−) (Proc Natl Acad Sci USA. 100, 2003, 3983-3988) and BCM-5471 (ER− PR− HER2−) (Cancer Res. 73, 2013, 4885-4897) were maintained as described (Cancer Res. 73, 2013, 4885-4897) by serial transplantation into SCID Beige immunocompromised host mice whose endogenous mammary epithelium was removed surgically (Cancer Res. 19, 1959, 515-20).
(§3) For treatment studies, MCF7 xenografts (ER+ PR+ HER2−) were generated by injection of one million cultured cells grown under standard in vitro conditions as previously described (Proc. Natl. Acad. Sci. U. S. A 105, 2008, 13033-13038). Donor tumors for PDX lines MC1 and BCM-5471 were divided into small fragments and retransplanted into the fat pat of recipient SCID Beige mice (5 mice per group). When the tumors reached approximately ˜200 mg, mice were treated with either vehicle or Sepin-1. Sepin-1 was injected at dose of 10 mg/kg daily for 5 days a week for 3 weeks. […] Vehicle injected mice served as controls. Size of the xenografts were measured every four days using calipers and tumor weight was estimated using the guidelines by NCI for xenograft evaluation (http://ncifrederick.cancer.gov/Lasp/Acuc/Frederick/Media/Documents/ACUC14.pdf). After 3 weeks treatment, the tumors were harvested and fixed in 10% Buffed Formalin Phosphate (Fisher Scientific, Pittsburgh, Pa.) overnight. […]

The subject of data set [2] is pediatric GBM tumor (#4687) orthotopic xenograft. As to the kind of experiment: Survival analysis, orthotopic xenograft of pediatric GBM tumor. The format is in vivo, SCID-beige mice. The following applies: 10 mg/kg daily ip, 5 days a week, 4 weeks, n=6/group. Here is the method:
(§4) FIG. 10 provides data relating to separase overexpression in Pediatric glioblastoma (GBM) and the effect of Sepin-1 in inhibiting the growth of glioblastoma cells in vitro and in vivo. […] SCID-beige mice after two weeks of transplantation were treated at a dose of 10 mg/kg daily ip for 5 days a week for 4 weeks with either Sepin-1 or vehicle (n=6/group).

Data set [3] relates to BCM-5471 triple-negative breast tumor xenograft. As to the kind of experiment: Growth inhibition of patient-derived xenograft BCM-5471. The format is in vivo, SCID-beige mice. The following applies: 10 mg/kg intraperitoneal injection, three week treatment.
Source text: as §2, §3

For a further data set, the system named is mice. As to the kind of experiment: Repeated intraperitoneal dosing tolerability in mice. The format is in vivo. To be noted: 10 mg/kg intraperitoneal injection daily for six weeks, 12 mice.
The subject of a further data set is human cancer cell lines. The data set can be described thus: MTT assay, summary over all cell lines. The following applies: all cell lines of Table 1, 72 h, read-out: range of IC50 over the different cell lines. The format is cell-based. Here is the method:
Applicants used the MTT assay to test the inhibitory effect of Sepin-1 on the growth of a variety of human cancer cell lines, including leukemia, breast cancer and neuroblastoma.
as §1

In data set [4] the test system is Separase overexpressing primary pediatric glioblastoma samples. The data set can be described thus: MTT cytotoxicity assays in primary pediatric glioblastoma samples. The format is cell-based. To be noted: two Separase overexpressing primary pediatric glioblastoma samples. Here is the method: as §4

Entries after “also recorded” stand apart in the source; their conditions may differ. Read-outs that look alike come from different tables or passages of the source.

Consider `CC1(C)[N+]([O-])=c2ccc([N+](=O)[O-])cc2=[N+]1[O-]` [Sepin-1, 2,2-dimethyl-5-nitro-2H-benzimidazole-1,3 dioxide], for which the IC50 in the data set with T47D is 30.8 µM; at Separase (calculated using KaleidaGraph, read-out: IC50 of Separase activity inhibition), 14.8 µM; at Separase (four-parameter fit, n=3, read-out: estimated IC50, four-parameter dose-response curve fit), 15.8 µM; in the data set with human cancer cell lines, no less than 1000 nM. For the same molecule, at Separase (0.1% Tween-20 or 1% BSA in the reaction mixture), the “effect of 0.1% Tween-20 or 1% BSA on inhibition kinetics” value was “did not affect the kinetics of Sepin-1 in inhibiting Separase activity”. The “dose dependence of Separase activity inhibition” value on Separase (FIG. 9B) is listed as “dose-dependent inhibition of Separase activity”. On Separase (Lineweaver-Burk plot, Sepin-1 mixed with Separase 30 min before substrate), the “mode of inhibition (effect on Km and Vmax)” value is on record as “did not affect the Km but reduced the Vmax; also recorded: reduced the speed (Vmax) of substrate conversion by Separase, but not the Km”. Also, at Separase (re-test of HTS hits), the “verified activity in inhibiting Separase enzymatic activity” value is on record as “highest activity”. The “inhibition of growth of xenograft MC1 tumors versus vehicle” value in data set [1] was found to be 70%. For the same molecule, the “life span of treated mice” value in data set [2] was “significant increase in the life span”. In addition, in data set [3], the “growth of xenograft BCM-5471 versus vehicle” value is given as “no significant difference in growth; also recorded: more sensitive to Sepin-1 than MC-1 tumors”. The “weight loss and adverse effects” value in the data set on mice is given as “no weight loss or apparent adverse effects”. For the same molecule, the “cell death in MTT cytotoxicity assays” value in data set [4] was “efficient cell death”.

The values are drawn from patent publication US10052310B2, “Separase inhibitors and uses thereof” (Baylor College of Medicine, priority 2013, dated 2018).
